Measured values from ChEMBL document CHEMBL4152282, “Synthesis and photodynamic activities of integrin-targeting silicon(IV) phthalocyanine-cRGD conjugates” (Eur J Med Chem, 2018).

Key:
[1] = Aggregation behavior of compound in DMF by UV-vis absorption spectra analysis; type: physicochemical
[2] = Photostability in DMF assessed as release of singlet oxygen at 4 uM preincubated with DPBF in dark followed by irradiation with red light by DPBF decay assay; type: functional
HT-29 [3] = assay: Photocytotoxicity against human HT-29 cells with high expression of alphaVbeta3 integrin assessed as decrease in cell viability preincubated for 2 hrs followed by red light irradiation and measured after overnight incubation by MTT assay; type: functional, cell-based; conditions: HT-29, light or radiation study
HT-29 [4] = assay: Photocytotoxicity against human HT-29 cells with high expression of alphaVbeta3 integrin assessed as decrease in cell viability preincubated for 24 hrs followed by red light irradiation and measured after overnight incubation by MTT assay; type: functional, cell-based; conditions: HT-29, light or radiation study
MCF7 [5] = assay: Photocytotoxicity against human MCF7 cells with low expression of alphaVbeta3 integrin assessed as decrease in cell viability preincubated for 2 hrs followed by red light irradiation and measured after overnight incubation by MTT assay; type: functional, cell-based; conditions: MCF7, light or radiation study
MCF7 [6] = assay: Photocytotoxicity against human MCF7 cells with low expression of alphaVbeta3 integrin assessed as decrease in cell viability preincubated for 24 hrs followed by red light irradiation and measured after overnight incubation by MTT assay; type: functional, cell-based; conditions: MCF7, light or radiation study
[7] = Selectivity ratio of IC50 for human MCF7 cells with low expression of alphaVbeta3 integrin to IC50 for human HT-29 cells with high expression of alphaVbeta3 integrin preincubated for 2 hrs followed by red light irradiation and measured after overnight incubation by MTT assay; type: functional
[8] = Selectivity ratio of IC50 for human MCF7 cells with low expression of alphaVbeta3 integrin to IC50 for human HT-29 cells with high expression of alphaVbeta3 integrin preincubated for 24 hrs followed by red light irradiation and measured after overnight incubation by MTT assay; type: functional
[9] = Aggregation behavior of compound in RPMI 1640 medium with 0.05% cremophor EL at 3 uM by UV-vis absorption spectra analysis; type: physicochemical
[10] = Aggregation behavior of compound in DMF at 1 to 6 uM by UV-vis absorption spectra analysis; type: physicochemical
[11] = Aggregation behavior of compound in water at 3 uM by UV-vis absorption spectra analysis; type: physicochemical; conditions: buffer
[12] = Drug uptake in human HT-29 cells at 1 uM after 2 to 24 hrs by confocal laser scanning microscopic method; type: ADME, cell-based; conditions: ht-29, 1 µM
[13] = Drug uptake in lysosome of human HT-29 cells at 1 uM incubated for 0.5 hrs by Lyso Tracker red dye-based confocal laser scanning microscopic method; type: ADME, subcellular; conditions: ht-29, 0.5 h
[14] = Drug uptake in mitochondria of human HT-29 cells at 1 uM incubated for 0.5 hrs by Mito Tracker green dye-based confocal laser scanning microscopic method; type: ADME; conditions: ht-29, 0.5 h
Mus musculus = assay: Drug uptake in KM mouse xenografted with […] cells at 0.5 nmol/g, iv measured up to 24 hrs by fluorescence imaging method; type: ADME, organism-based; conditions: in vivo
[15] = Drug uptake in tumor of KM mouse xenografted with […] cells expressing integrin at 0.5 nmol/g, iv measured after 24 hrs by fluorescence imaging method; type: ADME, organism-based, Neoplasm; conditions: in vivo
[16] = Drug uptake in heart of KM mouse xenografted with […] cells expressing integrin at 0.5 nmol/g, iv measured after 24 hrs by fluorescence imaging method; type: ADME, organism-based; conditions: in vivo
[17] = Drug uptake in liver of KM mouse xenografted with […] cells expressing integrin at 0.5 nmol/g, iv measured after 24 hrs by fluorescence imaging method; type: ADME, organism-based; conditions: in vivo
[18] = Drug uptake in spleen of KM mouse xenografted with […] cells expressing integrin at 0.5 nmol/g, iv measured after 24 hrs by fluorescence imaging method; type: ADME, organism-based; conditions: in vivo
[19] = Drug uptake in lung of KM mouse xenografted with […] cells expressing integrin at 0.5 nmol/g, iv measured after 24 hrs by fluorescence imaging method; type: ADME, organism-based; conditions: in vivo
[20] = Drug uptake in kidney of KM mouse xenografted with […] cells expressing integrin at 0.5 nmol/g, iv measured after 24 hrs by fluorescence imaging method; type: ADME, organism-based; conditions: in vivo
[21] = Drug uptake in skin of KM mouse xenografted with […] cells expressing integrin at 0.5 nmol/g, iv measured after 24 hrs by fluorescence imaging method; type: ADME, organism-based, Zone of skin; conditions: in vivo

Activity [1] | Activity [9] | Activity [10] | Activity [11] | Compound | Stability [2] | IC50 (HT-29 [3]) [nM] | IC50 (HT-29 [4]) [nM] | IC50 (MCF7 [5]) [nM] | IC50 (MCF7 [6]) [nM] | Ratio IC50 [7] | Ratio IC50 [8] | further results
Active |  |  |  | [N-]=[N+]=NCCOCCO[Si]1(OCCOCCN=[N+]=[N-])n2c3c4ccccc4c2/N=C2N=C(/N=c4/c5ccccc5/c(n41)=N/C1=NC(=N\3)/c3ccccc31)c1ccccc1\2 (stereo not drawn) | Unstable | 12 | 7.1 | 12 | 4.4 | 1 | 0.62 | 
 | Not Active | Not Active | Not Active | N=C(N)NCCC[C@@H]1NC(=O)[C@H](Cc2cn(CCOCCOCCOCCO[Si]3(OCCOCCOCCOCCO)n4c5c6ccccc6c4/N=C4N=C(/N=c6/c7ccccc7/c(n63)=N/C3=NC(=N\5)/c5ccccc53)c3ccccc3\4)nn2)NC(=O)[C@@H](Cc2ccccc2)NC(=O)[C@H](CC(=O)O)NC(=O)CNC1=O (stereo partly drawn) | Unstable | 32 | 32 | 35 | 33 | 1.09 | 1.03 | 
Not Active |  |  |  | [N-]=[N+]=NCCOCCOCCO[Si]1(OCCOCCOCCO)n2c3c4ccccc4c2/N=C2N=C(/N=c4/c5ccccc5/c(n41)=N/C1=NC(=N\3)/c3ccccc31)c1ccccc1\2 (stereo not drawn) | Unstable | 3 | 1.7 | 2.5 | 1.3 | 0.83 | 0.76 | 
Not Active |  |  |  | OCCOCCO[Si]1(OCCOCCO)n2c3c4ccccc4c2/N=C2N=C(/N=c4/c5ccccc5/c(n41)=N/C1=NC(=N\3)/c3ccccc31)c1ccccc1\2 | Unstable | 1.2 | 0.8 | 1 | 0.9 | 0.83 | 1.13 | 
 | Not Active | Not Active | Not Active | N=C(N)NCCC[C@@H]1NC(=O)[C@H](Cc2cn(CCOCCOCCO[Si]3(OCCOCCOCCO)n4c5c6ccccc6c4/N=C4N=C(/N=c6/c7ccccc7/c(n63)=N/C3=NC(=N\5)/c5ccccc53)c3ccccc3\4)nn2)NC(=O)[C@@H](Cc2ccccc2)NC(=O)[C@H](CC(=O)O)NC(=O)CNC1=O (stereo partly drawn) | Unstable | 32 | 26 | 39 | 26 | 1.22 | 1 | 
Not Active |  |  |  | [N-]=[N+]=NCCOCCOCCO[Si]1(OCCOCCOCCN=[N+]=[N-])n2c3c4ccccc4c2/N=C2N=C(/N=c4/c5ccccc5/c(n41)=N/C1=NC(=N\3)/c3ccccc31)c1ccccc1\2 (stereo not drawn) | Unstable | 8.6 | 7.9 | 12 | 11 | 1.4 | 1.39 | 
Not Active |  |  |  | OCCOCCOCCO[Si]1(OCCOCCOCCO)n2c3c4ccccc4c2/N=C2N=C(/N=c4/c5ccccc5/c(n41)=N/C1=NC(=N\3)/c3ccccc31)c1ccccc1\2 | Unstable | 0.3 | 0.3 | 0.3 | 0.3 | 1 | 1 | Drug uptake [12]: Active; Drug uptake [13]: Active; Drug uptake [14]: Active; Drug uptake (Mus musculus): Not Active; Drug uptake [15]: Not Active; Drug uptake [16]: Not Active; Drug uptake [17]: Not Active; Drug uptake [18]: Not Active; Drug uptake [19]: Not Active; Drug uptake [20]: Not Active; Drug uptake [21]: Not Active
 | Not Active | Not Active | Not Active | N=C(N)NCCC[C@@H]1NC(=O)[C@H](Cc2cn(CCOCCOCCOCCO[Si]3(OCCOCCOCCOCCn4cc(C[C@@H]5NC(=O)[C@@H](Cc6ccccc6)NC(=O)[C@H](CC(=O)O)NC(=O)CNC(=O)[C@H](CCCNC(=N)N)NC5=O)nn4)n4c5c6ccccc6c4/N=C4N=C(/N=c6/c7ccccc7/c(n63)=N/C3=NC(=N\5)/c5ccccc53)c3ccccc3\4)nn2)NC(=O)[C@@H](Cc2ccccc2)NC(=O)[C@H](CC(=O)O)NC(=O)CNC1=O (stereo partly drawn) | Unstable | 19 | 13 | 32 | 32 | 1.68 | 2.46 | 
Not Active |  |  |  | [N-]=[N+]=NCCOCCOCCOCCO[Si]1(OCCOCCOCCOCCN=[N+]=[N-])n2c3c4ccccc4c2/N=C2N=C(/N=c4/c5ccccc5/c(n41)=N/C1=NC(=N\3)/c3ccccc31)c1ccccc1\2 (stereo not drawn) | Unstable | 6.3 | 3.9 | 6.5 | 4 | 1.03 | 1.03 | 
 | Not Active | Not Active | Not Active | N=C(N)NCCC[C@@H]1NC(=O)[C@H](Cc2cn(CCOCCO[Si]3(OCCOCCn4cc(C[C@@H]5NC(=O)[C@@H](Cc6ccccc6)NC(=O)[C@H](CC(=O)O)NC(=O)CNC(=O)[C@H](CCCNC(=N)N)NC5=O)nn4)n4c5c6ccccc6c4/N=C4N=C(/N=c6/c7ccccc7/c(n63)=N/C3=NC(=N\5)/c5ccccc53)c3ccccc3\4)nn2)NC(=O)[C@@H](Cc2ccccc2)NC(=O)[C@H](CC(=O)O)NC(=O)CNC1=O (stereo partly drawn) | Unstable | 22 | 14 | 38 | 23 | 1.73 | 1.64 | 
 | Not Active | Not Active | Not Active | N=C(N)NCCC[C@@H]1NC(=O)[C@H](Cc2cn(CCOCCO[Si]3(OCCOCCO)n4c5c6ccccc6c4/N=C4N=C(/N=c6/c7ccccc7/c(n63)=N/C3=NC(=N\5)/c5ccccc53)c3ccccc3\4)nn2)NC(=O)[C@@H](Cc2ccccc2)NC(=O)[C@H](CC(=O)O)NC(=O)CNC1=O (stereo partly drawn) | Unstable | 33 | 35 | 33 | 39 | 1 | 1.11 | 
Not Active |  |  |  | OCCOCCOCCOCCO[Si]1(OCCOCCOCCOCCO)n2c3c4ccccc4c2/N=C2N=C(/N=c4/c5ccccc5/c(n41)=N/C1=NC(=N\3)/c3ccccc31)c1ccccc1\2 | Unstable | 0.2 | 0.2 | 0.2 | 0.2 | 1 | 1 | 
Not Active |  |  |  | [N-]=[N+]=NCCOCCO[Si]1(OCCOCCO)n2c3c4ccccc4c2/N=C2N=C(/N=c4/c5ccccc5/c(n41)=N/C1=NC(=N\3)/c3ccccc31)c1ccccc1\2 (stereo not drawn) | Unstable | 3.2 | 2.2 | 3.7 | 2.6 | 1.15 | 1.18 | 
Not Active |  |  |  | [N-]=[N+]=NCCOCCOCCOCCO[Si]1(OCCOCCOCCOCCO)n2c3c4ccccc4c2/N=C2N=C(/N=c4/c5ccccc5/c(n41)=N/C1=NC(=N\3)/c3ccccc31)c1ccccc1\2 (stereo not drawn) | Unstable | 2.6 | 1.4 | 2.7 | 1.7 | 1.04 | 1.21 | 
